Patent US11470844B2, “Vespidae wasp repellent” (KINP CO., LTD, priority 2015, dated 2022)

Columns and labels:
Vespa mandarinia worker [1] = test: Spray on Vespa mandarinia worker collecting sawthorn oak sap; type: in vivo, Vespa mandarinia japonica Radoszkowski; conditions: 10 workers; for behavior of workers after spraying: immediately started flapping, same time or a few seconds later; for Number of worker Effective / Number of worker No response: sprayed one time, observed up to 1 minute
Protocol: The experiment was conducted on a Vespa mandarinia japonica Radoszkowski worker which flew to a sawthorn oak tree bleeding sap and which collected the sap in Kagawa Prefecture Kinbuchi Forest Park in Takamatsu City Kagawa Prefecture from June to October, 2014 and from June to July, 2015.
Specifically, 100 mL of distilled water was enclosed in a plastic sprayer having a volume of 200 mL to be used as a control sprayer, and 100 mL of benzyl alcohol was enclosed in the same material and the same volume sprayer to be used as a test liquid sprayer. First, distilled water was sprayed one time to one Vespa mandarinia worker which was collecting sap at a sap bleeding part of a trunk of a sawthorn oak tree by using a control sprayer. […] Then, benzyl alcohol was sprayed one time by using a test liquid sprayer. Next, the workers were observed up to 1 minute. With respect to 2-phenylethanol, 3-phenylpropanol, 1-phenyl-2-prpanol and benzyl acetate, the spray test to a Vespa mandarinia worker collecting a sawthorn oak sap was conducted in the same condition.

Vespa mandarinia worker [2] = test: Black ball nest disturbance, Experiment 2 (new black ball, 30 s vibration); type: in vivo; conditions: for repellent effect: in vivo
Text: In the above-described Experiment 1, it was observed that vibrating the black ball in contact with the nest entrance more strongly induces the attack behavior of the worker rather than vibrating the black ball in the air away from the nest. Accordingly, the attack situation of the worker was investigated by vibrating the black ball in contact with the entrance of the same Vespidae wasp nest used in the above-described Experiment 1 for 30 seconds on Oct. 31, 2014. Specifically, the attack situation of the worker was observed similarly to the above-described Experiment 1 except for using a new black ball without using the black ball on which alarm pheromone was adsorbed even in the case of the test liquid and using 2-phenylethanol or benzyl alcohol as the test liquid by vibrating the black ball in contact with the entrance of the same nest for 30 seconds.
As a result, in the case of the black ball on which distilled water was sprayed, it was difficult to count the total number of the workers which flew to and alighted on the black ball for attack, since the black ball was continued to be attacked by the workers for 150 seconds from the end of the vibration almost without interruption and the number of attacking worker was clearly larger in comparison with the case of the above-described Experiment 1. The inventors therefore counted the number of the worker which could be observed on the hemispherical surface of the black ball from the video image at intervals of 30 seconds from the end of the disturbance. In addition, a picture of the video footage 145 seconds after the end of the nest entrance disturbance is shown as FIG. 1. FIG. 1A is an image of the case where distilled water was used, FIG. 1B is an image of the case where 2-phenylethanol was used, and FIG. 1C is an image of the case where benzyl alcohol was used.

[3] = tested on: Vespa simillima xanthoptera worker; test: Black ball nest disturbance, Experiment 2; type: in vivo; conditions: for number of worker on black ball hemispherical surface: new black ball; for repellent effect and action to suppress the aggression: in vivo
Protocol: A similar experiment to the above-described Example 2(2) was conducted against the same Vespa simillima xanthoptera nest of the above-described Experiment 1 on Oct. 31, 2014. The number of worker on the black spherical hemispherical surface counted every 30 seconds on the basis of the video image is shown in Table 5, and the picture of the video footage after 115 seconds is shown as FIG. 2. FIG. 2A is an image of the case where distilled water was used, FIG. 2B is an image of the case where 2-phenylethanol was used, and FIG. 2C is an image of the case where benzyl alcohol was used.

Apis mellifera worker = conditions: in vivo
Protocol: The experiment involving a Apis mellifera worker which was sucking nectar from a flower of Abelia planted at a bank of Noda pond located at Fuseishi-cho, Takamatsu City, Kagawa Prefecture was conducted on Jul. 22 to 24, 2015.
With respect to the experimental condition, first, distilled water was sprayed once on the worker which was sucking nectar or moving from a flower to a flower by using a sprayer, and then the inventors observed the behavior for 30 seconds. Next, benzyl alcohol, 2-phenylethanol or benzyl acetate was sprayed once on the same worker by using the sprayer having the same mass and the same volume, and then the inventors observed the behavior up to 30 seconds. The test liquid was judged to be “effective” in the case where the Apis mellifera worker on which the test liquid was sprayed did different action than normal activity to visit a flower during the observation time.

`OCc1ccccc1` [Benzyl alcohol, benzyl alcohol] was tested, and the “behavior of workers after spraying” value (Vespa mandarinia worker [1]) was “flew away from the sap bleeding part”, the “Number of worker Effective” value (Vespa mandarinia worker [1]) was 10/10 and the “Number of worker No response” value (Vespa mandarinia worker [1]) was 0/10. For the same compound, the “number of worker on hemispherical surface of black ball” value (shortened to “number of worker … of black ball”) (Vespa mandarinia worker [2]; 30 s after disturbance) was 0, the “number of worker … of black ball” value (Vespa mandarinia worker [2]; 60 s after disturbance) was 0 and the “number of worker … of black ball” value (Vespa mandarinia worker [2]; 90 s after disturbance) was 0. For the same compound, the “number of worker … of black ball” value (Vespa mandarinia worker [2]; 120 s after disturbance) was 0, the “number of worker … of black ball” value (Vespa mandarinia worker [2]; 150 s after disturbance) was 0 and the repellent effect (Vespa mandarinia worker [2]) was “very strong”. For the same compound, the “number of worker on black ball hemispherical surface” value ([3]; 30 s after disturbance) was 0, the “number of worker on black ball hemispherical surface” value ([3]; 60 s after disturbance) was 0 and the “number of worker on black ball hemispherical surface” value ([3]; 90 s after disturbance) was 0. The “number of worker on black ball hemispherical surface” value ([3]; 120 s after disturbance) was 0, the “number of worker on black ball hemispherical surface” value ([3]; 150 s after disturbance) was 0 and the “repellent effect and action to suppress the aggression” value [3] was “strong equivalent to or higher than the repellent effect on Vespa mandarinia”. The “Number of worker Effective” value (Apis mellifera worker) was 0/10, the “Number of worker No response” value (Apis mellifera worker) was 10/10 and the “effect on behavior of / harm to honeybee” value (Apis mellifera worker) was “does not effect on the behavior of an Apis mellifera worker”.

For `OCCc1ccccc1` [2-Phenylethanol, 2-phenylethanol], the “behavior of workers after spraying” value (Vespa mandarinia worker [1]) was “flew away from the sap bleeding part”, the “Number of worker Effective” value (Vespa mandarinia worker [1]) was 10/10 and the “Number of worker No response” value (Vespa mandarinia worker [1]) was 0/10. The “number of worker … of black ball” value (Vespa mandarinia worker [2]; 30 s after disturbance) was 0, the “number of worker … of black ball” value (Vespa mandarinia worker [2]; 60 s after disturbance) was 0 and the “number of worker … of black ball” value (Vespa mandarinia worker [2]; 90 s after disturbance) was 0. The “number of worker … of black ball” value (Vespa mandarinia worker [2]; 120 s after disturbance) was 0, the “number of worker … of black ball” value (Vespa mandarinia worker [2]; 150 s after disturbance) was 0 and the repellent effect (Vespa mandarinia worker [2]) was “very strong”. The “number of worker on black ball hemispherical surface” value ([3]; 30 s after disturbance) was 1, the “number of worker on black ball hemispherical surface” value ([3]; 60 s after disturbance) was 0 and the “number of worker on black ball hemispherical surface” value ([3]; 90 s after disturbance) was 0. For the same compound, the “number of worker on black ball hemispherical surface” value ([3]; 120 s after disturbance) was 0, the “number of worker on black ball hemispherical surface” value ([3]; 150 s after disturbance) was 0 and the “repellent effect and action to suppress the aggression” value [3] was “strong equivalent to or higher than the repellent effect on Vespa mandarinia”. For the same compound, the “Number of worker Effective” value (Apis mellifera worker) was 0/10 and the “Number of worker No response” value (Apis mellifera worker) was 10/10.
